# From patent US10730863B2, “Bridged bicyclic compounds as farnesoid X receptor modulators” (BRISTOL-MYERS SQUIBB COMPANY, priority 2017, dated 2020)
# pEC50: −log10 of the molar value.
# Biological target: FXR (Homo sapiens (Human), UniProt Q96RI1)
# Assay: FXR EC50 (FXR agonist activity reported with each example)
# Format: cell-based
# FXR, sequence (Q96RI1 262-486): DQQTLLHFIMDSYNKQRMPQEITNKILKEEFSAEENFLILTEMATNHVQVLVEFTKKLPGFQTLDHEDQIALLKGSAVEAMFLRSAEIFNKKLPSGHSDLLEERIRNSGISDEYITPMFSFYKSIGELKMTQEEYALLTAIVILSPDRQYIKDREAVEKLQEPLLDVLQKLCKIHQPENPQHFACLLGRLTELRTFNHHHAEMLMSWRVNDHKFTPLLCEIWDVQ
row,Structure (SMILES),pEC50
1,"O=C(O)c1cccc(-c2nnc(C34CCC(OCc5c(-c6ccccc6OC(F)(F)F)noc5C5CC5)(CC3)CC4)s2)c1 [Example 19, 3-(5-(4-((5-cyclopropyl-3-(2-(trifluoromethoxy)phenyl)isoxazol-4-yl)methoxy)bicyclo[2.2.2]octan-1-yl)-1,3,4-thiadiazol-2-yl)benzoic acid]",5.77
2,O=C(O)c1cc(F)c2nc(OCC34CCC(C=Cc5c(-c6c(Cl)cccc6Cl)noc5C5CC5)(CC3)CC4)sc2c1 [Example 191],7.24
3,COC(=O)c1cccc(-c2noc(C34CCC(OCc5c(-c6ccccc6C(F)(F)F)noc5C5CC5)(CC3)CC4)n2)c1 [Example 36],5.46
4,"O=C(O)c1cc(-c2noc(C34CCC(OCc5c(-c6c(Cl)cncc6Cl)noc5C5CC5)(CC3)CC4)n2)ccc1C(F)(F)F [Example 254, 5-(5-(4-((5-cyclopropyl-3-(3,5-dichloropyridin-4-yl)isoxazol-4-yl)methoxy)bicyclo[2.2.2]octan-1-yl)-1,2,4-oxadiazol-3-yl)-2-(trifluoromethyl)benzoic acid]",5.70
5,"COc1nc(C(=O)O)cc2ccc(C#CC34CCC(OCc5c(-c6c(Cl)cncc6Cl)noc5C5CC5)(CC3)CC4)cc12 [Example 521, 7-((4-((5-cyclopropyl-3-(3,5-dichloropyridin-4-yl)isoxazol-4-yl)methoxy)bicyclo[2.2.2]octan-1-yl)ethynyl)-1-methoxyisoquinoline-3-carboxylic acid]",7.40
6,"O=C(O)c1cc(-c2noc(C34CCC(OCc5c(-c6c(Cl)cncc6Cl)noc5C5CC5)(CC3)CC4)n2)cc(OC2CCC2)n1 [Example 261, 6-cyclobutoxy-4-(5-(4-((5-cyclopropyl-3-(3,5-dichloropyridin-4-yl)isoxazol-4-yl)methoxy)bicyclo[2.2.2]octan-1-yl)-1,2,4-oxadiazol-3-yl)picolinic acid]",7.44
7,CC(C)Oc1cc(C#CC23CCC(OCc4c(-c5c(Cl)cncc5Cl)noc4C4CC4)(CC2)CC3)cc(C(=O)O)c1 [Example 400],7.54
8,"CC(C)(C(=O)O)c1ccc(C23CCC(/C=C/c4c(-c5c(Cl)cncc5Cl)noc4C4CC4)(CC2)CO3)cc1 [Example 482, (E)-2-(4-(4-(2-(5-cyclopropyl-3-(3,5-dichloropyridin-4-yl)isoxazol-4-yl)vinyl)-2-oxabicyclo[2.2.2]octan-1-yl)phenyl)-2-methylpropanoic acid]",6.02
9,"COc1cc(C(=O)O)nc2ccc(OCC34CCC(OCc5c(-c6c(Cl)cncc6Cl)noc5C5CC5)(CC3)CC4)cc12 [Example 282, 6-((4-((5-cyclopropyl-3-(3,5-dichloropyridin-4-yl)isoxazol-4-yl)methoxy)bicyclo[2.2.2]octan-1-yl)methoxy)-4-methoxyquinoline-2-carboxylic acid]",7.22
10,COc1c(C#CC23CCC(OCc4c(-c5c(Cl)cncc5Cl)noc4C4CC4)(CC2)CC3)cccc1C(=O)O [Example 381],6.66
11,"COc1ccc(-c2nc(C34CCC(OCc5c(-c6c(Cl)cncc6Cl)noc5C5CC5)(CC3)CC4)co2)cc1C(=O)O [Example 252, 5-(4-(4-((5-cyclopropyl-3-(3,5-dichloropyridin-4-yl)isoxazol-4-yl)methoxy)bicyclo[2.2.2]octan-1-yl)oxazol-2-yl)-2-methoxybenzoic acid]",7.07
12,"O=C(O)c1ccccc1CNC(=O)C12CCC(OCc3c(-c4c(Cl)cccc4Cl)noc3C3CC3)(CC1)CC2 [Example 142, 2-((4-((5-cyclopropyl-3-(2,6-dichlorophenyl)isoxazol-4-yl)methoxy)bicyclo[2.2.2]octane-1-carboxamido)methyl)benzoic acid]",5.89
13,"COc1ccc(-c2noc(C34CCC(OCc5c(-c6c(Cl)cnn6C)noc5C5CC5)(CC3)CC4)n2)cc1C(=O)O [Example 273, 5-(5-(4-((3-(4-chloro-1-methyl-1H-pyrazol-5-yl)-5-cyclopropylisoxazol-4-yl)methoxy)bicyclo[2.2.2]octan-1-yl)-1,2,4-oxadiazol-3-yl)-2-methoxybenzoic acid]",5.48
14,"O=C(O)c1cccc(/C=C/C23CCC(COCc4c(-c5ccccc5OC(F)(F)F)noc4C4CC4)(CC2)CO3)c1 [Example 197, (E)-3-(2-(4-(((5-cyclopropyl-3-(2-(trifluoromethoxy)phenyl)isoxazol-4-yl)methoxy)methyl)-2-oxabicyclo[2.2.2]octan-1-yl)vinyl)benzoic acid]",7.05
15,CC(C)c1onc(-c2ccccc2OC(F)(F)F)c1COC12CCC(c3nc(-c4ccc(C(=O)O)cc4)no3)(CC1)CC2 [Example 26],6.01
16,O=C(O)c1ccc(OC2CCCC2)c2nc(C34CCC(OCc5c(-c6c(Cl)cncc6Cl)noc5C5CC5)(CC3)CC4)ccc12 [Example 408],8.00
17,"O=C(O)Cc1ccnc(OCC23CCC(OCc4c(-c5c(Cl)cccc5Cl)noc4C4CC4)(CC2)CC3)c1 [Example 104, 2-(2-((4-((5-cyclopropyl-3-(2,6-dichlorophenyl)isoxazol-4-yl)methoxy)bicyclo[2.2.2]octan-1-yl)methoxy)pyridin-4-yl)acetic acid]",6.68
18,CS(=O)(=O)NC(=O)c1cc(C(F)(F)F)c2cc(OCC34CCC(OCc5c(-c6c(Cl)cncc6Cl)noc5C5CC5)(CC3)CC4)ccc2n1 [Example 286],7.72
19,O=C(O)c1ccc(-c2noc(C34CCC(OCc5c(-c6c(Cl)cccc6Cl)noc5C5CC5)(CC3)CO4)n2)cc1 [Example 196],7.08
20,O=C(O)c1cccc(-c2nc(C34CCC(OCc5c(-c6ccccc6OC(F)(F)F)noc5C5CC5)(CC3)CC4)no2)n1 [Example 61],6.08

row,Structure (SMILES),pEC50
1,"O=C(O)c1csc(C23CCC(/C=C/c4c(-c5c(Cl)cncc5Cl)noc4C4CC4)(CC2)CC3)n1 [Example 510, (E)-2-(4-(2-(5-cyclopropyl-3-(3,5-dichloropyridin-4-yl)isoxazol-4-yl)vinyl)bicyclo[2.2.2]octan-1-yl)thiazole-4-carboxylic acid]",6.39
2,"O=C(O)c1cccc(OCC23CCC(OCc4c(-c5c(Cl)cccc5Cl)noc4C4CC4)(CC2)CC3)c1 [Example 82, 3-((4-((5-cyclopropyl-3-(2,6-dichlorophenyl)isoxazol-4-yl)methoxy)bicyclo[2.2.2]octan-1-yl)methoxy) benzoic acid]",7.66
3,COc1c(C#CC23CCC(OCc4c(-c5c(Cl)cncc5Cl)noc4C4CC4)(CC2)CC3)cccc1C(=O)O [Example 383],6.09
4,Cc1cc(OCC23CCC(OCc4c(-c5c(Cl)cncc5Cl)noc4C4CC4)(CC2)CC3)cc(C(=O)O)c1 [Example 322],8.15
5,"CC(C)(C(N)=O)c1ccc(C23CCC(/C=C/c4c(-c5c(Cl)cncc5Cl)noc4C4CC4)(CC2)CO3)cc1 [Example 481, (E)-2-(4-(4-(2-(5-cyclopropyl-3-(3,5-dichloropyridin-4-yl)isoxazol-4-yl)vinyl)-2-oxabicyclo[2.2.2]octan-1-yl)phenyl)-2-methylpropanamide]",6.29
6,CC(Oc1ccc(OCC23CCC(OCc4c(-c5c(Cl)cncc5Cl)noc4C4CC4)(CC2)CC3)cc1)C(=O)O (stereo not drawn) [Example 341],5.82
7,"O=C(O)c1cccc(OCC23CCC(OCc4c(-c5c(Cl)cncc5Cl)noc4C4CC4)(CC2)CC3)n1 [Example 113, 6-((4-((5-cyclopropyl-3-(3,5-dichloropyridin-4-yl)isoxazol-4-yl)methoxy)bicyclo[2.2.2]octan-1-yl)methoxy)picolinic acid]",7.04
8,O=C(O)c1cc(C(F)(F)F)c2nccc(C34CCC(OCc5c(-c6c(Cl)cncc6Cl)noc5C5CC5)(CC3)CC4)c2c1 [Example 372],6.24
9,"O=C(O)c1cnn(CC23CCC(OCc4c(-c5c(Cl)cccc5Cl)noc4C4CC4)(CC2)CC3)c1C(F)F [Example 269, 1-((4-((5-cyclopropyl-3-(2,6-dichlorophenyl)isoxazol-4-yl)methoxy)bicyclo[2.2.2]octan-1-yl)methyl)-5-(difluoromethyl)-1H-pyrazole-4-carboxylic acid]",6.15
10,O=C(O)c1ccc2nc(C34CCC(OCc5c(-c6c(Cl)cncc6Cl)noc5C5CC5)(CC3)CC4)ccc2n1 [Example 421],7.28
11,O=C(O)c1cccc(-c2noc(C34CCC(COCc5c(-c6ccccc6OC(F)(F)F)noc5C5CC5)(CC3)CC4)n2)c1 [Example 153],6.49
12,O=C(O)c1ccc(OCC2CC2)c2nc(C34CCC(OCc5c(-c6c(Cl)cncc6Cl)noc5C5CC5)(CC3)CC4)ccc12 [Example 392],7.62
13,O=C(O)c1ccc(C23CCC(COCc4c(-c5ccccc5OC(F)(F)F)noc4C4CC4)(CC2)CO3)cc1 [Example 205],6.35
14,"O=C(O)c1cc(OC2CC2)c2cc(OCC34CCC(OCc5c(-c6c(Cl)cncc6Cl)noc5C5CC5)(CC3)CC4)ccc2n1 [Example 331, 4-cyclopropoxy-6-((4-((5-cyclopropyl-3-(3,5-dichloropyridin-4-yl)isoxazol-4-yl)methoxy)bicyclo[2.2.2]octan-1-yl)methoxy)quinoline-2-carboxylic acid]",7.64
15,O=C(O)c1ccc(OCC23CCC(OCc4c(-c5ccccc5C(F)(F)F)noc4C4CC4)(CC2)CC3)c2ncccc12 [Example 305],6.98
16,"O=C(O)c1cc(F)c2nc(C#CC34CCC(OCc5c(-c6c(Cl)cncc6Cl)noc5C5CC5)(CC3)CC4)sc2c1 [Example 133, 2-((4-((5-cyclopropyl-3-(3,5-dichloropyridin-4-yl)isoxazol-4-yl)methoxy)bicyclo[2.2.2]octan-1-yl)ethynyl)-4-fluorobenzo[d]thiazole-6-carboxylic acid]",6.74
17,Cc1cc(C#CC23CCC(OCc4c(-c5c(Cl)cncc5Cl)noc4C4CC4)(CC2)CC3)cnc1C(=O)O [Example 388],7.26
18,"O=C(O)c1ccc(C23CCC(COCc4c(-c5c(Cl)cccc5Cl)noc4C4CC4)(CC2)CC3)cc1 [Example 174, 4-(4-(((5-cyclopropyl-3-(2,6-dichlorophenyl)isoxazol-4-yl)methoxy)methyl)bicyclo[2.2.2]octan-1-yl)benzoic acid]",6.68
19,"COc1cc(OCC23CCC(OCc4c(-c5c(Cl)cncc5Cl)noc4C4CC4)(CC2)CC3)ncc1C(=O)O [Example 301, 6-((4-((5-cyclopropyl-3-(3,5-dichloropyridin-4-yl)isoxazol-4-yl)methoxy)bicyclo[2.2.2]octan-1-yl)methoxy)-4-methoxynicotinic acid]",7.38
